Data published in patent publication US20240116985A1, “STAPLED PEPTIDES AND METHODS THEREOF” (priority 2020, published 2024).

What was measured:
CHI Log D procedure = type: physicochemical; details: for CHI Log D: pH 7.4; for chromatographic logD: pH 7.4, CHI Log D
[1] = target: T1, full-length B-Catenin (Uniprot ID P35222) (Homo sapiens, UniProt P35222); assay: Alphascreen binding assay (beta-catenin / biotin-TCF4 10-53)
T1 construct: 65 nM full-length B-Catenin (Uniprot ID P35222)
T1 sequence (P35222 1-781): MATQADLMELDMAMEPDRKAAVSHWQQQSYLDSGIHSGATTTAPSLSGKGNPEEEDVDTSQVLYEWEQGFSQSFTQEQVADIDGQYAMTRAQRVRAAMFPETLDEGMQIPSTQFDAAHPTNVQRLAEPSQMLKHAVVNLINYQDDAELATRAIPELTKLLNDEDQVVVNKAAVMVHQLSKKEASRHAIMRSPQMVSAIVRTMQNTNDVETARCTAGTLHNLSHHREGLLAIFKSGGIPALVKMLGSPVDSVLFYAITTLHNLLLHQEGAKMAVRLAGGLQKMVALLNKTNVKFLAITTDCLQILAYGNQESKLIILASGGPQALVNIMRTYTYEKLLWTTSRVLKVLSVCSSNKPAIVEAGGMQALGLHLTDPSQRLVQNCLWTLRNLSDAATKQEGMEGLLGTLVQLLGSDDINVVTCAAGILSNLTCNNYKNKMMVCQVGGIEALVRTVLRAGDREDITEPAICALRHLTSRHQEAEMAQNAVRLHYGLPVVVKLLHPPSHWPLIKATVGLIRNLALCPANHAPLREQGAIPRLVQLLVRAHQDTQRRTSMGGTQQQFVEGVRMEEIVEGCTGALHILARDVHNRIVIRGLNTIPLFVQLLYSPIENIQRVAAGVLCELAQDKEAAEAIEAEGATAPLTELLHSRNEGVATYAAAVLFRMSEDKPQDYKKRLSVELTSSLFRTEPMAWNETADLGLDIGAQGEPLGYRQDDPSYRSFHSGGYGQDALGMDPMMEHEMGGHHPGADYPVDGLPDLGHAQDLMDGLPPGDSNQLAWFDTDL
Summary of the method: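 Final concentrations: 65 nM full-length human β-catenin plus 10 nM biotin-TCF4(10-53) peptide, test peptide 3-fold from 10 uM to 5 nM, preincubated 15 min at 20 °C in Tris pH 8.0/250 mM NaCl buffer. Nickel-chelate AlphaScreen donor/acceptor beads then added for 60 min in the dark; duplicate reads fitted to 1:1 binding model with Hill slope.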

Row | Structure (SMILES) | CHI Log D (CHI Log D procedure) | EC50 [1] [µM] | chromatographic logD (CHI Log D procedure)
1 | CC(=O)N[C@@H](Cc1ccccc1)C(=O)N[C@@H](CC(=O)O)C(=O)N[C@@H](C)C(=O)N[C@]1(C)CCCCCCC=CCOC(=O)N2CC[C@@](C(=O)N[C@@H](Cc3ccccc3)C(=O)N[C@@H](Cc3c[nH]c4ccccc34)C(=O)N[C@@H](CCC(N)=O)C(N)=O)(C2)NC(=O)[C@H](C(C)C)NC(=O)[C@H](Cc2ccccc2)NC(=O)[C@H](C)NC(=O)[C@H](C)NC(=O)[C@H](CCCC(=O)O)NC(=O)[C@H](CC(=O)O)NC1=O [I-6, Ac-Phe-Asp-Ala-R8-Asp-Aad-Ala-Ala-Phe-Val-PyrS-Phe-Trp-Gln-NH2] | 1.378 | 6.5 | 
2 | CC(=O)N[C@@H](Cc1ccccc1)C(=O)N[C@@H](CC(=O)O)C(=O)N[C@@H](C)C(=O)N[C@]1(C)CCCCCC=CCOC(=O)N2CC[C@@](C(=O)N[C@@H](Cc3ccccc3)C(=O)N[C@@H](Cc3c[nH]c4ccccc34)C(=O)N[C@@H](CCC(N)=O)C(N)=O)(C2)NC(=O)[C@H](C(C)C)NC(=O)[C@H](Cc2ccccc2)NC(=O)[C@H](C)NC(=O)[C@H](C)NC(=O)[C@H](CC(=O)O)NC(=O)[C@H](CC(=O)O)NC1=O [I-30, Ac-Phe-Asp-Ala-R7-Asp-Asp-Ala-Ala-Phe-Val-PyrS-Phe-Trp-Gln-NH2] | 1.228 | 8.82 | 
3 | CC(=O)N1CCC[C@]12CC=CCCCC1(CCCC=CCCCCCC[C@@](C)(C(=O)N[C@@H](Cc3ccccc3)C(=O)N[C@@H](Cc3c[nH]c4ccccc34)C(N)=O)NC(=O)[C@H](C(C)C)NC(=O)[C@H](Cc3ccccc3)NC(=O)[C@H](C)NC(=O)[C@H](C)NC(=O)[C@H](CC(=O)O)NC(=O)[C@H](CC(=O)O)NC1=O)NC(=O)[C@H](C)NC(=O)[C@H](CC(=O)O)NC2=O (stereo partly drawn) [I-289, Ac-PL3-Asp-Ala-B5-Asp-Asp-Ala-Ala-Phe-Val-S8-Phe-Trp-NH2] | 2.242 | 0.626 | 
4 | CC[C@H](C)[C@H](NC(=O)[C@H](CC(=O)O)NC(C)=O)C(=O)N[C@]1(C)CCN(C)C(=O)OCC=CCCCCC[C@@](C)(C(=O)N[C@@H](Cc2ccccc2)C(=O)N[C@@H](Cc2c[nH]c3ccccc23)C(N)=O)NC(=O)[C@H](CCC(N)=O)NC(=O)[C@H](Cc2ccccc2)NC(=O)[C@H](C)NC(=O)[C@H](C)NC(=O)[C@H](CC(=O)O)NC(=O)[C@H](CC(=O)O)NC1=O [I-151, Ac-Asp-Ile-RdN-Asp-Asp-Ala-Ala-Phe-Gln-S7-Phe-Trp-NH2] |  | 5.5 | 1.35
5 | CC(=O)N[C@@H](Cc1ccccc1)C(=O)N[C@@H](CC(=O)O)C(=O)N[C@@H](C)C(=O)N[C@]1(C)CCCCCCC=CCOC(=O)N2CC[C@@](C(=O)N[C@@H](Cc3ccccc3)C(=O)N[C@@H](Cc3c[nH]c4ccccc34)C(=O)N[C@@H](CCC(N)=O)C(N)=O)(C2)NC(=O)[C@H](C(C)C)NC(=O)[C@H](Cc2cccc(C(N)=O)c2)NC(=O)[C@H](C)NC(=O)[C@H](C)NC(=O)[C@H](CC(=O)O)NC(=O)[C@H](CC(=O)O)NC1=O [I-109, Ac-Phe-Asp-Ala-R8-Asp-Asp-Ala-Ala-3CBMF-Val-PyrS-Phe-Trp-Gln-NH2] | 1.223 | 8.82 | 

Continued by falling EC50 [1], values first:

Row | CHI Log D (CHI Log D procedure) | EC50 [1] [µM] | chromatographic logD (CHI Log D procedure) | Structure (SMILES)
6 |  | 9.21 | 2.18 | CC(=O)N1CCC[C@]12CC=CCCCC1(CCCC=CCCCCCC[C@@](C)(C(=O)N[C@@H](Cc3ccccc3)C(=O)N[C@@H](Cc3c[nH]c4ccc(C(F)(F)F)cc34)C(=O)N[C@@H](CCC(N)=O)C(N)=O)NC(=O)[C@H](C(C)C)NC(=O)[C@H](Cc3ccccc3)NC(=O)[C@H](C)NC(=O)[C@H](C)NC(=O)[C@H](CCC(=O)O)NC(=O)[C@H](CC(=O)O)NC1=O)NC(=O)[C@H](C)NC(=O)[C@H](CC(=O)O)NC2=O (stereo partly drawn) [I-169, Ac-PL3-Asp-Ala-B5-Asp-Glu-Ala-Ala-Phe-Val-S8-Phe-5CF3W-Gln-NH2]
7 | 1.497 | 7.63 |  | CC(=O)N[C@@H](Cc1ccccc1)C(=O)N[C@@H](CC(=O)O)C(=O)N[C@@H](C)C(=O)N[C@]1(C)CCCCCCC=CCOC(=O)N2CC[C@@](C(=O)N[C@@H](Cc3c(F)c(F)c(F)c(F)c3F)C(=O)N[C@@H](Cc3c[nH]c4ccccc34)C(=O)N[C@@H](CCC(N)=O)C(N)=O)(C2)NC(=O)[C@H](C(C)C)NC(=O)[C@H](Cc2ccccc2)NC(=O)[C@H](C)NC(=O)[C@H](C)NC(=O)[C@H](CC(=O)O)NC(=O)[C@H](CC(=O)O)NC1=O [I-226, Ac-Phe-Asp-Ala-R8-Asp-Asp-Ala-Ala-Phe-Val-PyrS-Pff-Trp-Gln-NH2]
8 |  | 3.97 | 1.27 | CC(=O)N[C@@H](Cc1ccccc1)C(=O)N[C@@H](CC(=O)O)C(=O)N[C@@H](C)C(=O)N[C@]1(C)CCCCCCC=CCOC(=O)N2CC[C@@](C(=O)N[C@@H](Cc3ccccc3)C(=O)N[C@@H](Cc3c[nH]c4ccccc34)C(=O)N[C@@H](CCC(N)=O)C(N)=O)(C2)NC(=O)[C@H](C(C)C)NC(=O)[C@H](Cc2ccc(F)c(F)c2)NC(=O)[C@H](C)NC(=O)[C@H](C)NC(=O)[C@H](CC(=O)O)NC(=O)[C@H](CC(=O)O)NC1=O [I-79, Ac-Phe-Asp-Ala-R8-Asp-Asp-Ala-Ala-34FF-Val-PyrS-Phe-Trp-Gln-NH2]
9 | 2.159 | 3.6 |  | CC(=O)N1CCC[C@]12CC=CCCCC1(CCCC=CCCCCCC[C@@](C)(C(=O)N[C@@H](Cc3ccc(Cl)cc3)C(=O)N[C@@H](Cc3c[nH]c4ccccc34)C(=O)N[C@@H](CCC(N)=O)C(N)=O)NC(=O)[C@H](C(C)C)NC(=O)[C@H](Cc3ccccc3)NC(=O)[C@H](C)NC(=O)[C@H](C)NC(=O)[C@H](CC(=O)O)NC(=O)[C@H](CC(=O)O)NC1=O)NC(=O)[C@H](C)NC(=O)[C@H](CC(=O)O)NC2=O (stereo partly drawn) [I-313, Ac-PL3-Asp-Ala-B5-Asp-Asp-Ala-Ala-Phe-Val-S8-4C1F-Trp-Gln-NH2]
10 | 2.074 | 3.47 |  | CC(=O)N1CCC[C@]12CC=CCCCC1(CCCC=CCCCCCC[C@@](C)(C(=O)N[C@@H](Cc3ccccc3)C(=O)N[C@@H](Cc3c[nH]c4ccccc34)C(=O)N[C@@H](CCC(N)=O)C(N)=O)NC(=O)[C@H](C(C)C)NC(=O)[C@H](Cc3ccc(C(F)(F)F)cc3)NC(=O)[C@H](C)NC(=O)[C@H](C)NC(=O)[C@H](CC(=O)O)NC(=O)[C@H](CC(=O)O)NC1=O)NC(=O)[C@H](C)NC(=O)[C@H](CC(=O)O)NC2=O (stereo partly drawn) [I-241, Ac-PL3-Asp-Ala-B5-Asp-Asp-Ala-Ala-4F3MeF-Val-S8-Phe-Trp-Gln-NH2]
11 | 1.933 | 0.355 |  | CC(=O)N1CCC[C@]12CC=CCCCC1(CCCC=CCCCCCC[C@@](C)(C(=O)N[C@@H](Cc3ccccc3)C(=O)N[C@@H](Cc3c[nH]c4ccccc34)C(=O)N[C@@H](CCC(N)=O)C(N)=O)NC(=O)[C@H](C(C)C)NC(=O)[C@H](Cc3ccc(N)cc3)NC(=O)[C@H](C)NC(=O)[C@H](C)NC(=O)[C@H](CC(=O)O)NC(=O)[C@H](CC(=O)O)NC1=O)NC(=O)[C@H](C)NC(=O)[C@H](CC(=O)O)NC2=O (stereo partly drawn) [I-322, Ac-PL3-Asp-Ala-B5-Asp-Asp-Ala-Ala-4AmPhe-Val-S8-Phe-Trp-Gln-NH2]
12 | 2.278 | 0.173 |  | CC(=O)N1CCC[C@]12CC=CCCCC1(CCCC=CCCCCCC[C@@](C)(C(=O)N[C@@H](Cc3ccccc3)C(=O)N[C@@H](Cc3c[nH]c4ccccc34)C(=O)N[C@@H](CCC(N)=O)C(N)=O)NC(=O)[C@H](C(C)C)NC(=O)[C@H](Cc3ccccc3)NC(=O)[C@H](C)NC(=O)[C@H](C)NC(=O)[C@H](CCC(=O)O)NC(=O)[C@H](CC(=O)O)NC1=O)NC(=O)[C@H](C)NC(=O)[C@H](CC(N)=O)NC2=O (stereo partly drawn) [I-200, Ac-PL3-Asn-Ala-B5-Asp-Glu-Ala-Ala-Phe-Val-S8-Phe-Trp-Gln-NH2]
